Source: patent US12560591B2, “Methods of treatment with CD8 T cell-mediated immune therapy” (Providence Health & Services—Oregon, priority 2019, dated 2026)

Tested on: peripheral blood CXCR3^+CD45^+CD3^+CD4^− T cells
Assay: Clinical trial NCT02688712: peripheral blood CXCR3 flow cytometry, baseline vs day 15
Type: in vivo, human
Details: rectal cancer patients, after two weeks of LY2157299, majority of patients, FIG. 12C
Source text: FIGS. 12A-12E are a series of panels showing TGFβ-mediated suppression of CXCR3-dependent CD8^+ T cell chemotaxis is relieved by LY2157299 in human patients with rectal cancer. […] FIG. 12B illustrates the clinical trial schema for a phase II clinical trial of rectal cancer patients and sample collection intervals. Patients receive two cycles of LY2157299 on days 1-14 and again on days 30-43 while receiving standard of care chemoradiation on days 15-57 prior to surgery. […] Patients are grouped by nodal status following neoadjuvant treatment (ypN). On the right, percent change in frequency of CXCR3^+CD3^+CD4^− T cells between days 1 and 15 is shown versus the neoadjuvant rectal (NAR) score. […] Each patient is shown (thin gray lines) along with the mean of all patients (thick black line). […] Error bars in each subpanel are standard deviations.
Clinical trial analysis: Patients enrolled in clinical trial NCT02688712 provided consent prior to tissue collection as designed and approved in PHS IRB #15-050. […] Pathological assessment for neoadjuvant treatment response was evaluated in the surgical resection specimen including excised lymph nodes. Neoadjuvant rectal (NAR) score was calculated by the published, validated formula (George et al, Curr. Colorectal Cancer Rep. 11: 275-280): [5*ypN−3(cT−ypT)+12]^2/9.61. […]

Compound: Cc1cccc(-c2nn3c(c2-c2ccnc4ccc(C(N)=O)cc24)CCC3)n1 [LY2157299]
- peripheral blood CXCR3 expression, change day 0 to day 15: decrease in peripheral blood CXCR3 expression
